Measured values taken from paper PMC11597089, “Kratom Alkaloids: A Blood–Brain Barrier Specific Membrane Permeability Assay-Guided Isolation and Cyclodextrin Complexation Study” (Molecules, 2024).

How the values were obtained:
Type in all cases: physicochemical
[1] = ACE complex stability, PYR-β-CD; details: 6-monodeoxy-6-pyrrolidine-β-CD, positively charged, 30 mM phosphate buffer pH 7.4, 25 °C
Method: (§1) To investigate the CD complexation behavior of the four kratom alkaloids, we aimed to develop an ACE method for a systematic comparative study. […] To ensure sufficient buffer capacity and to avoid excessive current and Joule heat generation, the buffer concentration was set to 30 mM, and the applied voltage was 15 kV.
(§2) The ACE experiments were performed by using Agilent 7100 and HP^3DCE instruments (Agilent Technologies, Waldbronn, Germany). Untreated fused silica capillaries (total length of 48.5 cm, effective length of 40 cm, inner diameter of 50 μm) were purchased from Agilent Technologies. The new capillaries were conditioned with a 1 M NaOH wash for 1 h, followed by a 30 min wash each with 0.1 M NaOH and purified water. Prior to all runs, the capillary was preconditioned by rinsing with background electrolyte for 3 min. During the measurements, 30 mM phosphate buffer at pH 7.4 (30 mM Na2HPO4-NaOH) was used. The background electrolyte contained CDs at various concentrations. Stock solutions of the studied kratom alkaloids (mitragynine, paynantheine, speciogynine, speciociliatine) were prepared separately in methanol (1 mg/mL), and, right before the measurements, appropriate dilutions with purified water were used to prepare the sample solutions, applying 0.1% DMSO as the electroosmotic flow (EOF) marker. The samples were injected hydrodynamically at 40 mbar for 3 s. The positive polarity voltage was set to 15 kV, and the capillary was set to 25 °C. The electropherograms were recorded at four wavelengths (200 nm, 210 nm, 215 nm, and 220 nm), and the data were evaluated at 215 nm. In each case, three parallel measurements were performed. The measurements were evaluated using Origin and CEval software (v. 0.6i3).
(§3) In order to determine the complex stability constants that characterized the strength of the complexes, the first step was to determine the effective mobility of the analyte at specific CD concentrations. Triangular peaks caused by electromigration dispersion are often observed in ACE measurements.
(§4) Assuming a 1:1 complexation ratio and that the equilibrium CD concentration is almost equal to the total CD concentration, a relationship between the effective mobility relative to the EOF and the complex stability constant can be described by Function (4) (4) μeff=μA+μACDKstabCD/1+KstabCD where µeff is the effective mobility of the analyte, µA and µACD are the free and complexed analyte mobilities, [CD] is the concentration of the selector, and Kstab is the complex stability constant.
(§5) In order to calculate the exact, apparent, averaged complex stability constant values, viscosity correction and ionic strength correction were used.

[2] = ACE complex stability, HP-β-CD; details: hydroxypropylated-β-CD DS~4.5, 30 mM phosphate buffer pH 7.4, 25 °C
Method: as §1, §2
as §3, with “measurements. […]” for “measurements.”

[3] = ACE complex stability, SP-β-CD; details: sulfopropylated-β-CD DS~2, 30 mM phosphate buffer pH 7.4, 25 °C
Method: as §1
(§6) The ACE experiments were performed by using Agilent 7100 and HP^3DCE instruments (Agilent Technologies, Waldbronn, Germany). Untreated fused silica capillaries (total length of 48.5 cm, effective length of 40 cm, inner diameter of 50 μm) were purchased from Agilent Technologies. The new capillaries were conditioned with a 1 M NaOH wash for 1 h, followed by a 30 min wash each with 0.1 M NaOH and purified water. Prior to all runs, the capillary was preconditioned by rinsing with background electrolyte for 3 min. During the measurements, 30 mM phosphate buffer at pH 7.4 (30 mM Na2HPO4-NaOH) was used. The background electrolyte contained CDs at various concentrations. […] The electropherograms were recorded at four wavelengths (200 nm, 210 nm, 215 nm, and 220 nm), and the data were evaluated at 215 nm. […] The measurements were evaluated using Origin and CEval software (v. 0.6i3). […]

[4] = ACE complex stability, MePYR-β-CD; details: mono-6^A-(N-methyl-pyrrolidine)-β-CD, positively charged, 30 mM phosphate buffer pH 7.4, 25 °C
Method: as §1, §2, §3, §4, §5

[5] = ACE complex stability, HxDMS-α-CD; details: hexakis-(2,3-O-dimethyl, 6-O-sulfo)-α-CD, 30 mM phosphate buffer pH 7.4, 25 °C
Method: as §1, §2, §3, §4, §5

[6] = ACE complex stability, HP-γ-CD; details: hydroxypropylated-γ-CD DS~3, 30 mM phosphate buffer pH 7.4, 25 °C
Method: as §1, §2
as §3, with “measurements. […]” for “measurements.”

[7] = ACE complex stability, CM-β-CD; details: carboxymethylated-β-CD DS~3, 30 mM phosphate buffer pH 7.4, 25 °C
Method: as §1, §2, §3, §4, §5

[8] = ACE complex stability, Phos-β-CD; details: phosphated-β-CD DS~2-6, 30 mM phosphate buffer pH 7.4, 25 °C
Method: as §1, §2, §3, §4, §5

[9] = ACE complex stability, γ-CD; details: 30 mM phosphate buffer pH 7.4, 25 °C, 15 kV, 215 nm
Method: as §1, §2, §3, §4, §5

[10] = ACE complex stability, DIME-β-CD; details: dimethylated-β-CD DS~14, 30 mM phosphate buffer pH 7.4, 25 °C
Method: as §1, §2
as §3, with “measurements. […]” for “measurements.”

[11] = ACE complex stability, HPA-β-CD; details: mono-6^A-(3-hydroxy)propylamino-β-CD, positively charged, 30 mM phosphate buffer pH 7.4, 25 °C
Method: as §1, §2, §3, §4, §5

[12] = ACE complex stability, RAME-β-CD; details: randomly methylated-β-CD DS~12, 30 mM phosphate buffer pH 7.4, 25 °C
Method: as §1, §2, §3, §4, §5

[13] = ACE complex stability, HDMS-β-CD; details: heptakis-(2,3-O-dimethyl, 6-O-sulfo)-β-CD, 30 mM phosphate buffer pH 7.4, 25 °C
Method: as §1, §2, §3, §4, §5

[14] = ACE complex stability, CM-α-CD; details: carboxymethylated-α-CD DS~3.5, 30 mM phosphate buffer pH 7.4, 25 °C
Method: as §1, §2
as §3, with “measurements. […]” for “measurements.”

[15] = ACE complex stability, α-CD; details: 30 mM phosphate buffer pH 7.4, 25 °C, 15 kV, 215 nm
Method: as §1, §2, §3, §4, §5

[16] = ACE complex stability, MA-β-CD; details: mono-(6-N-amino-6-deoxy)-β-CD, positively charged, 30 mM phosphate buffer pH 7.4, 25 °C
Method: as §1, §2, §3, §4, §5

[17] = ACE complex stability, Sualfadex; details: hexakis-(6-deoxy-6-(2-carboxyethyl)thio)-α-CD, 30 mM phosphate buffer pH 7.4, 25 °C
Method: as §1, §2, §3, §4, §5

[18] = ACE complex stability, CM-γ-CD; details: carboxymethylated-γ-CD DS~4, 30 mM phosphate buffer pH 7.4, 25 °C
Method: as §1, §2, §3, §4, §5

[19] = ACE complex stability, ODMS-γ-CD; details: octakis-(2,3-O-dimethyl, 6-O-sulfo)-γ-CD, 30 mM phosphate buffer pH 7.4, 25 °C
Method: as §1, §2, §3, §4, §5

[20] = ACE complex stability, β-CD; details: 30 mM phosphate buffer pH 7.4, 25 °C, 15 kV, 215 nm
Method: as §1, §2, §3, §4, §5

[21] = ACE complex stability, CE-β-CD; details: carboxyethylated-β-CD DS~3, 30 mM phosphate buffer pH 7.4, 25 °C
Method: as §1, §2, §3, §4, §5

[22] = ACE complex stability, Sugammadex; details: octakis(6-deoxy-6-(2-carboxyethyl)thio)-γ-CD, 30 mM phosphate buffer pH 7.4, 25 °C
Method: as §1, §6

SMILES: C=C[C@H]1CN2CCc3c([nH]c4cccc(OC)c34)[C@@H]2C[C@@H]1/C(=C\OC)C(=O)OC [Paynantheine, paynantheine]
- complex stability constant (Kstab) with PYR-β-CD [1]: < 10 M⁻¹
- complex stability constant (Kstab) with HP-β-CD [2]: 75 ± 5 M⁻¹
- complex stability constant (Kstab) with SP-β-CD [3]: 335 ± 35 M⁻¹
- complex stability constant (Kstab) with MePYR-β-CD [4]: < 10 M⁻¹
- complex stability constant (Kstab) with HxDMS-α-CD [5]: 110 ± 8 M⁻¹
- complex stability constant (Kstab) with HP-γ-CD [6]: 325 ± 50 M⁻¹
- complex stability constant (Kstab) with CM-β-CD [7]: 185 ± 15 M⁻¹
- complex stability constant (Kstab) with Phos-β-CD [8]: 335 ± 30 M⁻¹
- complex stability constant (Kstab) with γ-CD [9]: 140 ± 5 M⁻¹
- complex stability constant (Kstab) with DIME-β-CD [10]: 325 ± 30 M⁻¹
- complex stability constant (Kstab) with HPA-β-CD [11]: < 10 M⁻¹
- complex stability constant (Kstab) with RAME-β-CD [12]: 170 ± 30 M⁻¹
- complex stability constant (Kstab) with HDMS-β-CD [13]: 135 ± 14 M⁻¹
- complex stability constant (Kstab) with CM-α-CD [14]: 175 ± 12 M⁻¹
- complex stability constant (Kstab) with α-CD [15]: 20 ± 2 M⁻¹
- complex stability constant (Kstab) with MA-β-CD [16]: < 10 M⁻¹
- complex stability constant (Kstab) with Sualfadex [17]: 80 ± 15 M⁻¹
- complex stability constant (Kstab) with CM-γ-CD [18]: 180 ± 20 M⁻¹
- complex stability constant (Kstab) with ODMS-γ-CD [19]: 280 ± 25 M⁻¹
- complex stability constant (Kstab) with β-CD [20]: 145 ± 15 M⁻¹
- complex stability constant (Kstab) with CE-β-CD [21]: 625 ± 40 M⁻¹

SMILES: CC[C@@H]1CN2CCc3c([nH]c4cccc(OC)c34)[C@H]2C[C@@H]1/C(=C\OC)C(=O)OC [Speciociliatine, speciociliatine]
- complex stability constant (Kstab) with PYR-β-CD [1]: < 10 M⁻¹
- complex stability constant (Kstab) with Sugammadex [22]: 700 ± 45 M⁻¹
- complex stability constant (Kstab) with HP-β-CD [2]: 30 ± 3 M⁻¹
- complex stability constant (Kstab) with MePYR-β-CD [4]: < 10 M⁻¹
- complex stability constant (Kstab) with HxDMS-α-CD [5]: 240 ± 20 M⁻¹
- complex stability constant (Kstab) with HP-γ-CD [6]: 220 ± 25 M⁻¹
- complex stability constant (Kstab) with CM-β-CD [7]: 230 ± 20 M⁻¹
- complex stability constant (Kstab) with Phos-β-CD [8]: 215 ± 15 M⁻¹
- complex stability constant (Kstab) with γ-CD [9]: 15 ± 1 M⁻¹
- complex stability constant (Kstab) with DIME-β-CD [10]: 100 ± 6 M⁻¹
- complex stability constant (Kstab) with HPA-β-CD [11]: < 10 M⁻¹
- complex stability constant (Kstab) with RAME-β-CD [12]: 20 ± 2 M⁻¹
- complex stability constant (Kstab) with HDMS-β-CD [13]: 105 ± 12 M⁻¹
- complex stability constant (Kstab) with α-CD [15]: 22 ± 3 M⁻¹
- complex stability constant (Kstab) with MA-β-CD [16]: < 10 M⁻¹
- complex stability constant (Kstab) with Sualfadex [17]: 250 ± 45 M⁻¹
- complex stability constant (Kstab) with CM-γ-CD [18]: 120 ± 12 M⁻¹
- complex stability constant (Kstab) with ODMS-γ-CD [19]: 230 ± 15 M⁻¹
- complex stability constant (Kstab) with β-CD [20]: 35 ± 3 M⁻¹
- complex stability constant (Kstab) with CE-β-CD [21]: 160 ± 10 M⁻¹
